pEC50: −log10 of the molar value.
Key:
human GR [1] = biological target: T1, human GR (Homo sapiens, UniProt P04150); test: Trans-Activation Modulation of Glucocorticoid Receptor (GRAMMER), MMTV-LUC reporter gene; format: cell-based; parameters: endogenous in cells; conditions: for Emax: A549; for pEC50: A549 cells, IP = inflection point
T1 sequence (P04150 1-777): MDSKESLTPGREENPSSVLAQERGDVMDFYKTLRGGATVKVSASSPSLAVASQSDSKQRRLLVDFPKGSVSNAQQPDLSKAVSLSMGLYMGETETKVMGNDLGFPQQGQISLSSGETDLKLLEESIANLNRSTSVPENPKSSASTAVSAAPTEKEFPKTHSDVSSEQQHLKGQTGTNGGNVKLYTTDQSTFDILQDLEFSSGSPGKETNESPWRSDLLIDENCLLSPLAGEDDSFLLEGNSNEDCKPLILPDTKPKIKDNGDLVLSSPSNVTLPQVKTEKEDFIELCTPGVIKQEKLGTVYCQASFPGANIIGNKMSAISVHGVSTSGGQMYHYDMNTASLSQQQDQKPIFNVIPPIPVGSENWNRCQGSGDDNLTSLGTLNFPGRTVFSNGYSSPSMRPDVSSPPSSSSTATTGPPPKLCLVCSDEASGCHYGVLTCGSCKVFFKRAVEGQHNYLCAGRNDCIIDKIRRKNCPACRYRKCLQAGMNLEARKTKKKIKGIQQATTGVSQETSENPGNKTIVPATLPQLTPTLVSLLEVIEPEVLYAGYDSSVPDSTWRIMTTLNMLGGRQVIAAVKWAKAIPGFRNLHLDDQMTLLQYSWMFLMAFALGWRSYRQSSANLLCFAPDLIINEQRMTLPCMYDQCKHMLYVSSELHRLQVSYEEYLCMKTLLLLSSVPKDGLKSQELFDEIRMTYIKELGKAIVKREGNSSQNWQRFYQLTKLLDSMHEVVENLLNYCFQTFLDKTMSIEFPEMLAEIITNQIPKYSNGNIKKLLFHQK
Text: Trans-Activation Modulation of Glucocorticoid Receptor (GRAMMER)
This assay assesses the ability of test compounds to control transcription from the MMTV-LUC reporter gene in lung adenocarcinoma A549 cells or HeLa cells, a human […] cell line that naturally expresses the human GR. The assay measures induction of a modified MMTV LTR/promoter linked to the LUC reporter gene.
The routine transient assay consists of plating 7,000-25,000 cells/well of a white, clear-bottom 96-well plate. Alternatively, 384-well plates can be used at a cell concentration of 10,000/well. The media that the cells are plated in is “exponential growth medium” which consists of phenol red-free RPMI1640 containing 10% FBS, 4 mM L-glutamine, 20 mM HEPES, 10 ug/mL human insulin, and 20 ug/mL gentamicin. Incubator conditions are 37° C. and 5% CO2. The transfection is done in batch mode. The cells are trypsinized and counted to the right cell number in the proper amount of fresh media. It is then gently mixed with the FuGene6/DNA mix and plated onto the 96 or 384-well plate, all the wells receive 100 uL or 40 uL, respectively, of medium+lipid/DNA complex then incubated 37° C. overnight. The transfection cocktail consists of serum-free OptiMEM, FuGene6 reagent and DNA. The manufacturer's (Roche Biochemical) protocol for cocktail setup is as follows: The lipid to DNA ratio is approximately 2.5:1 and the incubation time is 20 min at room temperature. Sixteen to 24 hours after transfection, the cells are treated with dexamethasone to a final concentration of 10 nM as well as the compound of interest, such that final DMSO (vehicle) concentration is equal to or less than 1%. Each plate also contains samples that are treated with 10 nM dexamethasone alone, which is used as the 100% activity control. The cells are exposed to the compounds for 24 hours. After 24 hours, the cells are lysed by a Promega cell culture lysis buffer for approximately 30 min and then the luciferase activity in the extracts is assayed in the 96-well format luminometer. In 384-well format, Steady-Glo (Promega) or Steady-Lite (PerkinElmer) can be used by adding an equal volume of reagent to the media present in each well. Activity induced by 10 nM dexamethasone alone is set at 100% activity. Antagonist activity is calculated by determining the decrease in dexamethasone-induced activity in response to compound treatment relative to samples that were treated with dexamethasone alone. […] This transactivation assay can be performed in an agonist and antagonist mode to identify these different activities. […]

human GR [2] = biological target: T1, human GR; test: Transrepression Assay (GITAR), TNFα-β-lactamase reporter gene in U937 cells; format: cell-based; parameters: U937 cells contain an endogenous glucocorticoid receptor (GR); endogenous in cells; host or cells: U937 cells stably transfected with the TNF-α promoter/β-lactamase reporter only; conditions: for pEC50: IP = inflection point; for GITAR > GRAMM % SEP: separation of GITAR Emax over GRAMMER Emax; for Emax: U-937
In short: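 Reporter readout used CCF2-AM loading for 70–90 min at room temperature after overnight (~18 h, 37 °C) PMA (5 ng/ml final) and LPS (100 ng/ml final) stimulation of compound-treated (30–45 min) TNFα-β-lactamase U937 cells expressing native GR. Activity was normalised to 100 nM dexamethasone repression.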

[3] = read-out: Transactivation A549 Cells GRAMMER Emax (%)
[4] = Table 1, read-out: Transactivation A549 Cells GRAMMER IP
[5] = Table 1, U937 cells, read-out: Transrepression U937 Cells GITAR IP
[6] = 100 nM dexamethasone = 100% activity, read-out: maximal activity in the transrepression assay
[7] = Table 1, U937 cells, activity repressed by 100 nM dexamethasone = 100%, read-out: Transrepression U937 Cells GITAR Emax (%)
[8] = read-out: Transactiviation A549 Cells GRAMMER Emax (%)
[9] = Table 2, read-out: Transactiviation A549 Cells GRAMMER IP
[10] = Table 2, U937 cells, read-out: Transactiviation U937 Cells GITAR IP
[11] = Table 2, U937 cells, activity repressed by 100 nM dexamethasone = 100%, read-out: Transactiviation U937 Cells GITAR Emax (%)

Compound	Emax (human GR [1]; [3])	pEC50 (human GR [1]; [4])	pEC50 (human GR [2]; [5])	GITAR > GRAMM % SEP (human GR [2]; Table 1)	Emax (human GR [2]; [6])	Emax (human GR [2]; [7])	Emax (human GR [1]; [8])	pEC50 (human GR [1]; [9])	pEC50 (human GR [2]; [10])	GITAR > GRAMM % SEP (human GR [2]; Table 2)	Emax (human GR [2]; [11])
CC(CNC(=O)c1c(F)cccc1CC[C@]1(O)CCC2=Cc3c(cnn3-c3ccc(F)cc3)C[C@@]21C)C(F)(F)F (stereo partly drawn) [Example 38, 2-fluoro-6-{2-[(4αS,5R)-1-(4-fluorophenyl)-5-hydroxy-4α-methyl-1,4,4α,5,6,7-hexahydrocyclopenta[f]indazol-5-yl]ethyl}-N-(3,3,3-trifluoro-2-methylpropyl)benzamide]	15%	7.04	6.82	44%	5 to 100%	58%	–	–	–	–	–
C[C@]12Cc3cnn(-c4ccc(F)cc4)c3C=C1CC[C@@]2(O)CCc1ccccc1Cl [Example 40 WO 2004/075840 A2, reference compound]	–	–	–	–	–	–	98%	6.79	6.67	−7%	91%
C[C@]12Cc3cnn(-c4ccc(F)cc4)c3C=C1CC[C@@]2(O)CCc1ccccc1C(=O)N1CCC1 [Example 40, (4αS,5R)-5-{2-[2-(azetidin-1-ylcarbonyl)phenyl]ethyl}-1-(4-fluorophenyl)-4α-methyl-1,4,4α,5,6,7-hexahydrocyclopenta[f]indazol-5-ol]	46%	6.64	6.61	17%	5 to 100%	64%	–	–	–	–	–
C[C@]12Cc3cnn(-c4ccc(F)cc4)c3C=C1CCC[C@@]2(O)CCc1ccccc1Cl [Example 41 WO 2004/075840 A2, reference compound]	–	–	–	–	–	–	92%	6.91	6.57	−3%	88%
COC(=O)C(C)(C)NC(=O)c1c(F)cccc1CC[C@]1(O)CCC2=Cc3c(cnn3-c3ccc(F)cc3)C[C@@]21C [Example 41, methyl N-(2-fluoro-6-{2-[(4αS,5R)-1-(4-fluorophenyl)-5-hydroxy-4α-methyl-1,4,4α,5,6,7-hexahydrocyclopenta[f]indazol-5-yl]ethyl}benzoyl)-2-methylalaninate]	18%	7.34	6.94	44%	5 to 100%	62%	–	–	–	–	–
C[C@]12Cc3cnn(-c4ccccc4)c3C=C1CC[C@@]2(O)CCc1ccccc1C(=O)NC1CC1 [Example 42, N-cyclopropyl-2-{2-[(4αS,5R)-5-hydroxy-4α-methyl-1-phenyl-1,4,4α,5,6,7-hexahydrocyclopenta[f]indazol-5-yl]ethyl}benzamide]	51%	7.13	6.91	13%	5 to 100%	64%	–	–	–	–	–
C[C@]12Cc3cnn(-c4ccc(F)cc4)c3C=C1CC[C@@]2(O)CCc1ccccc1C(=O)N1CCCCC1 [Example 46, (4αS,5R)-1-(4-fluorophenyl)-4α-methyl-5-{2-[2-(piperidin-1-ylcarbonyl)phenyl]ethyl}-1,4,4α,5,6,7-hexahydrocyclopenta[f]indazol-5-ol]	54%	6.75	6.61	17%	5 to 100%	70%	–	–	–	–	–
CC(C)[C@@H](C)NC(=O)c1c(F)cccc1CC[C@]1(O)CCC2=Cc3c(cnn3-c3ccc(F)cc3)C[C@@]21C [Example 48, N-[(1R)-1,2-dimethylpropyl]-2-fluoro-6-{2-[(4αS,5R)-1-(4-fluorophenyl)-5-hydroxy-4α-methyl-1,4,4α,5,6,7-hexahydrocyclopenta[f]indazol-5-yl]ethyl}benzamide]	13%	7.03	6.70	59%	5 to 100%	72%	–	–	–	–	–

Continued, values first:

Emax (human GR [1]; [3])	pEC50 (human GR [1]; [4])	pEC50 (human GR [2]; [5])	GITAR > GRAMM % SEP (human GR [2]; Table 1)	Emax (human GR [2]; [6])	Emax (human GR [2]; [7])	Emax (human GR [1]; [8])	pEC50 (human GR [1]; [9])	pEC50 (human GR [2]; [10])	GITAR > GRAMM % SEP (human GR [2]; Table 2)	Emax (human GR [2]; [11])	Compound
59%	6.95	7.01	9%	5 to 100%	68%	–	–	–	–	–	C[C@]12Cc3cnn(-c4ccccc4)c3C=C1CC[C@@]2(O)CCc1ccccc1C(N)=O [Example 43, 2-{2-[(4αS,5R)-5-hydroxy-4α-methyl-1-phenyl-1,4,4α,5,6,7-hexahydrocyclopenta[f]indazol-5-yl]ethyl}benzamide]
24%	7.02	6.92	43%	5 to 100%	67%	–	–	–	–	–	C=C(C)CNC(=O)c1c(F)cccc1CC[C@]1(O)CCC2=Cc3c(cnn3-c3ccc(F)cc3)C[C@@]21C [Example 44, 2-fluoro-6-{2-[(4αS,5R)-1-(4-fluorophenyl)-5-hydroxy-4α-methyl-1,4,4α,5,6,7-hexahydrocyclopenta[f]indazol-5-yl]ethyl}-N-(2-methylprop-2-en-1-yl)benzamide]
18%	6.74	6.66	52%	5 to 100%	70%	–	–	–	–	–	C[C@H](CNC(=O)c1ccccc1CC[C@]1(O)CCC2=Cc3c(cnn3-c3ccc(F)cc3)C[C@@]21C)C(F)(F)F [Example 45, 2-{2-[(4αS,5R)-1-(4-fluorophenyl)-5-hydroxy-4α-methyl-1,4,4α,5,6,7-hexahydrocyclopenta[f]indazol-5-yl]ethyl}-N-[(2R)-3,3,3-trifluoro-2-methylpropyl]benzamide]
–	–	–	–	–	–	26%	6.24	6.22	44%	71%	C[C@]12Cc3cnn(-c4ccc(F)cc4)c3C=C1CC[C@@]2(O)CCc1ccc(F)cc1 [Example 46 WO 2004/075840 A2, reference compound]
59%	6.71	6.69	12%	5 to 100%	71%	–	–	–	–	–	C[C@]12Cc3cnn(-c4ccc(F)cc4)c3C=C1CC[C@@]2(O)CCc1ccccc1C(=O)N1CCCC1 [Example 47, (4αS,5R)-1-(4-fluorophenyl)-4α-methyl-5-{2-[2-(pyrrolidin-1-ylcarbonyl)phenyl]ethyl}-1,4,4α,5,6,7-hexahydrocyclopenta[f]indazol-5-ol]
